In PubChem BioAssay AID334 (DTP/NCI, 2004):
Several values for one entry are separate records, joined by “and”; a condition that tells them apart may be missing. Equal entries are not always repeated. Inconclusive results and toxic doses are left out.

Test system: CD2F1 mice, intracerebral P388 leukemia, median survival T/C%
Test: NCI In Vivo Anticancer Drug Screen. Data for tumor model P388 Leukemia (intracerebral) in CD2F1 (CDF1) mice
Conditions: endpoint: median survival time, higher = longer survival
Description: The antitumor activity of compounds was measured in mice bearing transplantable tumors. Survival or tumor size were measured and the results are expressed as the measurement made in the treated group (T) divided by the measurement made in the vehicle treated control group (C). The tumor model used in this assay is P388 Leukemia (intracerebral) in CD2F1 (CDF1) mice

[1] = dose: 10.0 mg/kg/injection, schedule: Q01DX005 (ip), vehicle: Klucel (hydroxypropylcellulose) (HPC)
[2] = dose: 20.0 mg/kg/injection, schedule: Q01DX005 (ip), vehicle: Klucel (hydroxypropylcellulose) (HPC)
[3] = dose: 8.0 mg/kg/injection, schedule: Q01DX009 (ip), vehicle: saline
[4] = dose: 32.0 mg/kg/injection, schedule: Q01DX005 (ip), vehicle: saline

For CSCS(=O)C[C@H](CO)NC(=O)/C=C/c1c(C)[nH]c(=O)[nH]c1=O (stereo not given in full), which T/C (dose: 0.06 mg/kg/injection, schedule: Q01DX005 (ip), vehicle: Klucel (hydroxypropylcellulose) (HPC)) is on record?
The T/C was 103 % of control and 104 % of control.

What about the T/C (dose: 0.12 mg/kg/injection, schedule: Q01DX005 (ip), vehicle: Klucel (hydroxypropylcellulose) (HPC)) of the same compound?
The T/C was 101 % of control and 105 % of control.

What about the T/C (dose: 0.25 mg/kg/injection, schedule: Q01DX005 (ip), vehicle: Klucel (hydroxypropylcellulose) (HPC)) of the same compound?
The T/C was 107 % of control and 110 % of control.

What about the T/C (dose: 0.5 mg/kg/injection, schedule: Q01DX005 (ip), vehicle: Klucel (hydroxypropylcellulose) (HPC)) of the same compound?
Its T/C is 106 % of control and 108 % of control.

What does the source list for N=C(N)SCc1c2ccccc2c(CSC(=N)N)c2ccccc12?
T/C (dose: 2.5 mg/kg/injection, schedule: Q01DX005 (ip), vehicle: Klucel (hydroxypropylcellulose) (HPC)): 93 % of control and 96 % of control; T/C (dose: 5.0 mg/kg/injection, schedule: Q01DX005 (ip), vehicle: Klucel (hydroxypropylcellulose) (HPC)): 97 % of control and 104 % of control; T/C [1]: 97 % of control and 101 % of control; T/C [2]: 96 % of control and 104 % of control

How did the T/C [3] turn out when CC1(C)N=C(N)N=C(N)N1c1ccc(CCCCc2ccc(Cl)c(S(=O)(=O)F)c2)c(Cl)c1 was run?
The T/C was 105 % of control.

What about the T/C (dose: 12.0 mg/kg/injection, schedule: Q01DX009 (ip), vehicle: saline) of the same compound?
The T/C was 122 % of control.

What about the T/C (dose: 18.0 mg/kg/injection, schedule: Q01DX009 (ip), vehicle: saline) of the same compound?
Its T/C is 116 % of control.

What about the T/C (dose: 27.0 mg/kg/injection, schedule: Q01DX009 (ip), vehicle: saline) of the same compound?
Its T/C is 88 % of control.

Which results are given for Nc1nc2c(c(=O)[nH]1)N(C=O)C(CNc1ccc(C(=O)N[C@@H](CCC(=O)O)C(=O)O)cc1)CN2 (stereo not given in full)?
T/C (dose: 128.0 mg/kg/injection, schedule: Q01DX005 (ip), vehicle: suspension in saline): 98 % of control; T/C (dose: 256.0 mg/kg/injection, schedule: Q01DX005 (ip), vehicle: suspension in saline): 97 % of control; T/C (dose: 512.0 mg/kg/injection, schedule: Q01DX005 (ip), vehicle: suspension in saline): 100 % of control

F was tested. Which T/C (dose: 16.0 mg/kg/injection, schedule: Q01DX005 (ip), vehicle: saline) did it give?
Its T/C is 97 % of control and 101 % of control.

And the T/C [4]?
The T/C was 98 % of control and 99 % of control.

For COc1cccc2c1C(=O)c1c(O)c3c(c(O)c1C2=O)C[C@@](O)(/C(C)=N/NC(=O)c1ccccc1)C[C@@H]3OC1CC(N)C(O)C(C)O1 (stereo not given in full), which T/C (dose: 1.0 mg/kg/injection, schedule: Q01DX009 (ip), vehicle: saline with Tween-80) is on record?
The T/C was 111 % of control.

What about the T/C (dose: 1.0 mg/kg/injection, schedule: Q01DX009 (ip), vehicle: saline) of the same compound?
The T/C was 103 % of control and 106 % of control.

And the T/C (dose: 2.0 mg/kg/injection, schedule: Q01DX009 (ip), vehicle: saline with Tween-80)?
The T/C was 90 % of control and 108 % of control.

And the T/C (dose: 2.0 mg/kg/injection, schedule: Q01DX009 (ip), vehicle: saline)?
The T/C was 113 % of control and 106 % of control.

What about the T/C (dose: 4.0 mg/kg/injection, schedule: Q01DX009 (ip), vehicle: saline with Tween-80) of the same compound?
Its T/C is 114 % of control and 116 % of control.

And the T/C (dose: 4.0 mg/kg/injection, schedule: Q01DX009 (ip), vehicle: saline)?
Its T/C is 113 % of control and 111 % of control.

What about the T/C (dose: 8.0 mg/kg/injection, schedule: Q01DX009 (ip), vehicle: saline with Tween-80) of the same compound?
Its T/C is 106 % of control and 111 % of control.

What about the T/C [3] of the same compound?
Its T/C is 100 % of control and 103 % of control.

What about the T/C (dose: 16.0 mg/kg/injection, schedule: Q01DX009 (ip), vehicle: saline with Tween-80) of the same compound?
Its T/C is 90 % of control and 94 % of control.

For Cc1cc(OCc2nc(N)nc(N)c2-c2ccc(Cl)c(Cl)c2)ccc1NS(=O)(=O)c1cccc(S(=O)(=O)F)c1, which T/C (dose: 117.0 mg/kg/injection, schedule: Q04DX003 (ip), vehicle: saline) is on record?
The T/C was 100 % of control.

And the T/C (dose: 176.0 mg/kg/injection, schedule: Q04DX003 (ip), vehicle: saline)?
Its T/C is 100 % of control.

And the T/C (dose: 264.0 mg/kg/injection, schedule: Q04DX003 (ip), vehicle: saline)?
Its T/C is 111 % of control.

And the T/C (dose: 400.0 mg/kg/injection, schedule: Q04DX003 (ip), vehicle: saline)?
The T/C was 111 % of control.

COc1cccc2c1C(=O)c1c(O)c3c(c(O)c1C2=O)C[C@@](O)(C(=O)CO)C[C@@H]3OC1CC(N)C(O)C(C)O1 (stereo not given in full) was tested. Which T/C (dose: 0.5 mg/kg/injection, schedule: Q01DX001 (ip), vehicle: saline) did it give?
The T/C was 89 % of control.

And the T/C (dose: 1.0 mg/kg/injection, schedule: Q01DX001 (ip), vehicle: saline)?
The T/C was 98 % of control.

What about the T/C (dose: 2.0 mg/kg/injection, schedule: Q01DX001 (ip), vehicle: saline) of the same compound?
Its T/C is 94 % of control.

And the T/C (dose: 4.0 mg/kg/injection, schedule: Q01DX001 (ip), vehicle: saline)?
Its T/C is 90 % of control.

What about the T/C (dose: 8.0 mg/kg/injection, schedule: Q01DX001 (ip), vehicle: saline) of the same compound?
Its T/C is 80 % of control.

What about the T/C (dose: 16.0 mg/kg/injection, schedule: Q01DX001 (ip), vehicle: saline) of the same compound?
Its T/C is 91 % of control.

Which results are given for O=C1C(=O)c2ccccc2C(O)=C1CC=C(Cl)Cl?
T/C [1]: 102 % of control and 109 % of control; T/C [2]: 96 % of control and 98 % of control; T/C (dose: 40.0 mg/kg/injection, schedule: Q01DX005 (ip), vehicle: Klucel (hydroxypropylcellulose) (HPC)): 104 % of control and 105 % of control; T/C (dose: 80.0 mg/kg/injection, schedule: Q01DX005 (ip), vehicle: Klucel (hydroxypropylcellulose) (HPC)): 100 % of control

For CC(C)=CCC1=C(O)c2ccccc2C(=O)C1=O, which T/C (dose: 32.0 mg/kg/injection, schedule: Q01DX005 (ip), vehicle: Klucel (hydroxypropylcellulose) (HPC)) is on record?
The T/C was 104 % of control.

What about the T/C (dose: 64.0 mg/kg/injection, schedule: Q01DX005 (ip), vehicle: Klucel (hydroxypropylcellulose) (HPC)) of the same compound?
The T/C was 104 % of control.

What about the T/C (dose: 128.0 mg/kg/injection, schedule: Q01DX005 (ip), vehicle: Klucel (hydroxypropylcellulose) (HPC)) of the same compound?
Its T/C is 95 % of control.

And the T/C (dose: 256.0 mg/kg/injection, schedule: Q01DX005 (ip), vehicle: Klucel (hydroxypropylcellulose) (HPC))?
Its T/C is 92 % of control.

With O=P1(N(CCCl)CCCl)NCCCO1 (stereo not given) as the compound, how does the T/C (dose: 265.0 mg/kg/injection, schedule: Q01DX001 (ip), vehicle: saline) read?
The T/C was 163 % of control.

For COc1cc(C[C@H]2c3cc(OC)c(OC)cc3CCN2C)c(Oc2cc3c(cc2OC)-c2c(OC)c(OC)cc4c2[C@H](C3)N(C)CC4)cc1OC, which T/C (dose: 50.0 mg/kg/injection, schedule: Q01DX005 (ip), vehicle: Klucel (hydroxypropylcellulose) (HPC)) is on record?
Its T/C is 102 % of control and 106 % of control and 107 % of control.

What about the T/C (dose: 200.0 mg/kg/injection, schedule: Q01DX005 (ip), vehicle: Klucel (hydroxypropylcellulose) (HPC)) of the same compound?
The T/C was 96 % of control and 101 % of control and 104 % of control.

Which results are given for O=NN(CCCl)C(=O)NCCCl?
T/C (dose: 8.0 mg/kg/injection, schedule: Q01DX005 (iv), vehicle: saline + alcohol): 160 % of control; T/C (dose: 30.0 mg/kg/injection, schedule: Q01DX001 (ip), vehicle: saline + alcohol): 202 % of control; T/C (dose: 40.0 mg/kg/injection, schedule: Q01DX001 (ip), vehicle: saline + alcohol): 202 % of control

Which results are given for COS(C)(=O)=O?
T/C [4]: 107 % of control and 108 % of control; T/C (dose: 64.0 mg/kg/injection, schedule: Q01DX005 (ip), vehicle: saline): 97 % of control and 106 % of control; T/C (dose: 128.0 mg/kg/injection, schedule: Q01DX005 (ip), vehicle: saline): 104 % of control and 105 % of control

CC[C@H]1CN2CCc3cc(OC)c(OC)cc3[C@@H]2C[C@@H]1C[C@H]1NCCc2cc(OC)c(OC)cc21 was tested. Which T/C (dose: 2.0 mg/kg/injection, schedule: Q01DX005 (ip), vehicle: Klucel (hydroxypropylcellulose) (HPC)) did it give?
The T/C was 113 % of control and 99 % of control.

And the T/C (dose: 4.0 mg/kg/injection, schedule: Q01DX005 (ip), vehicle: Klucel (hydroxypropylcellulose) (HPC))?
The T/C was 94 % of control and 100 % of control.

And the T/C (dose: 8.0 mg/kg/injection, schedule: Q01DX005 (ip), vehicle: Klucel (hydroxypropylcellulose) (HPC))?
Its T/C is 119 % of control and 100 % of control.

With CC1(C)N=C(N)N=C(N)N1c1ccc(OCC(=O)Nc2ccc(S(=O)(=O)F)cc2)c(Cl)c1 as the compound, how does the T/C (dose: 50.0 mg/kg/injection, schedule: Q04DX003 (ip), vehicle: saline) read?
Its T/C is 111 % of control.

What about the T/C (dose: 100.0 mg/kg/injection, schedule: Q04DX003 (ip), vehicle: saline) of the same compound?
Its T/C is 100 % of control.

What about the T/C (dose: 200.0 mg/kg/injection, schedule: Q04DX003 (ip), vehicle: saline) of the same compound?
Its T/C is 111 % of control.

What does the source list for NC(=O)c1csc(C2OC(CO)C(O)C2O)n1 (stereo not given)?
T/C (dose: 12.5 mg/kg/injection, schedule: Q01DX009 (ip), vehicle: saline): 105 % of control; T/C (dose: 25.0 mg/kg/injection, schedule: Q01DX009 (ip), vehicle: saline): 121 % of control; T/C (dose: 50.0 mg/kg/injection, schedule: Q01DX009 (ip), vehicle: saline): 110 % of control; T/C (dose: 100.0 mg/kg/injection, schedule: Q01DX009 (ip), vehicle: saline): 119 % of control; T/C (dose: 200.0 mg/kg/injection, schedule: Q01DX009 (ip), vehicle: saline): 121 % of control; T/C (dose: 800.0 mg/kg/injection, schedule: Q01DX009 (ip), vehicle: saline): 93 % of control
